Results published in the NIST ThermoML archive (doi:10.1021/je200811n).
Numbers after ± are expanded uncertainties.

Details: Hot wire method

## F/C=C/C(F)(F)F [trans-1,3,3,3-tetrafluoropropene]
322.82 K, 587 kPa, Gas
  thermal conductivity: 0.01562 ± 0.00053 W/m/K
322.86 K, 21602 kPa, Liquid
  thermal conductivity: 0.08015 ± 0.00088 W/m/K
322.89 K, 858 kPa, Gas
  thermal conductivity: 0.01585 ± 0.00053 W/m/K
322.9 K, 15321 kPa, Liquid
  thermal conductivity: 0.07653 ± 0.00085 W/m/K
322.91 K, 884 kPa, Gas
  thermal conductivity: 0.01588 ± 0.00053 W/m/K
322.91 K, 5442 kPa, Liquid
  thermal conductivity: 0.06937 ± 0.00078 W/m/K
322.93 K, 431 kPa, Gas
  thermal conductivity: 0.01557 ± 0.00052 W/m/K
322.94 K, 5376 kPa, Liquid
  thermal conductivity: 0.06973 ± 0.00078 W/m/K
322.99 K, 96 kPa, Gas
  thermal conductivity: 0.01599 ± 0.00054 W/m/K
323 K, 710 kPa, Gas
  thermal conductivity: 0.01574 ± 0.00053 W/m/K
323.07 K, 301 kPa, Gas
  thermal conductivity: 0.01559 ± 0.00052 W/m/K
323.15 K, Liquid
  thermal conductivity: 0.06606 ± 0.00047 W/m/K
323.18 K, 586 kPa, Gas
  thermal conductivity: 0.01563 ± 0.00053 W/m/K
323.19 K, 193 kPa, Gas
  thermal conductivity: 0.01574 ± 0.00053 W/m/K
323.23 K, 856 kPa, Gas
  thermal conductivity: 0.01588 ± 0.00053 W/m/K
323.26 K, 882 kPa, Gas
  thermal conductivity: 0.01587 ± 0.00053 W/m/K
323.3 K, 430 kPa, Gas
  thermal conductivity: 0.01563 ± 0.00053 W/m/K
323.36 K, 707 kPa, Gas
  thermal conductivity: 0.01574 ± 0.00053 W/m/K
323.41 K, 96 kPa, Gas
  thermal conductivity: 0.0162 ± 0.00054 W/m/K
323.46 K, 301 kPa, Gas
  thermal conductivity: 0.01566 ± 0.00053 W/m/K
323.55 K, 585 kPa, Gas
  thermal conductivity: 0.01566 ± 0.00053 W/m/K
323.61 K, 193 kPa, Gas
  thermal conductivity: 0.01581 ± 0.00053 W/m/K
323.71 K, 429 kPa, Gas
  thermal conductivity: 0.01566 ± 0.00053 W/m/K
323.86 K, 96 kPa, Gas
  thermal conductivity: 0.01599 ± 0.00054 W/m/K
323.88 K, 301 kPa, Gas
  thermal conductivity: 0.01569 ± 0.00053 W/m/K
324.05 K, 193 kPa, Gas
  thermal conductivity: 0.01583 ± 0.00053 W/m/K
324.33 K, 96 kPa, Gas
  thermal conductivity: 0.01609 ± 0.00054 W/m/K
331.18 K, 96 kPa, Gas
  thermal conductivity: 0.01637 ± 0.00055 W/m/K
331.19 K, 198 kPa, Gas
  thermal conductivity: 0.01658 ± 0.00056 W/m/K
331.21 K, 298 kPa, Gas
  thermal conductivity: 0.01665 ± 0.00056 W/m/K
331.4 K, 96 kPa, Gas
  thermal conductivity: 0.0162 ± 0.0005 W/m/K
331.42 K, 198 kPa, Gas
  thermal conductivity: 0.01638 ± 0.00055 W/m/K
331.43 K, 298 kPa, Gas
  thermal conductivity: 0.01653 ± 0.00055 W/m/K
331.64 K, 96 kPa, Gas
  thermal conductivity: 0.01611 ± 0.00054 W/m/K
331.65 K, 197 kPa, Gas
  thermal conductivity: 0.01629 ± 0.00055 W/m/K
331.67 K, 298 kPa, Gas
  thermal conductivity: 0.0164 ± 0.0006 W/m/K
331.9 K, 96 kPa, Gas
  thermal conductivity: 0.01602 ± 0.00054 W/m/K
331.9 K, 298 kPa, Gas
  thermal conductivity: 0.01635 ± 0.00055 W/m/K
331.91 K, 197 kPa, Gas
  thermal conductivity: 0.01618 ± 0.00054 W/m/K
332.16 K, 298 kPa, Gas
  thermal conductivity: 0.01629 ± 0.00055 W/m/K
332.17 K, 198 kPa, Gas
  thermal conductivity: 0.01612 ± 0.00054 W/m/K
332.17 K, 1166 kPa, Gas
  thermal conductivity: 0.01695 ± 0.0003 W/m/K
332.18 K, 1084 kPa, Gas
  thermal conductivity: 0.01688 ± 0.0003 W/m/K
332.3 K, 442 kPa, Gas
  thermal conductivity: 0.01671 ± 0.00056 W/m/K
332.33 K, 813 kPa, Gas
  thermal conductivity: 0.0168 ± 0.00056 W/m/K
332.38 K, 585 kPa, Gas
  thermal conductivity: 0.01673 ± 0.00056 W/m/K
332.42 K, 298 kPa, Gas
  thermal conductivity: 0.01634 ± 0.00055 W/m/K
332.43 K, 600 kPa, Gas
  thermal conductivity: 0.0167 ± 0.00056 W/m/K
332.46 K, 434 kPa, Gas
  thermal conductivity: 0.01674 ± 0.00056 W/m/K
332.46 K, 1166 kPa, Gas
  thermal conductivity: 0.01705 ± 0.00031 W/m/K
332.47 K, 1082 kPa, Gas
  thermal conductivity: 0.01688 ± 0.0003 W/m/K
332.52 K, 198 kPa, Gas
  thermal conductivity: 0.0166 ± 0.00056 W/m/K
332.63 K, 813 kPa, Gas
  thermal conductivity: 0.01684 ± 0.00056 W/m/K
332.65 K, 442 kPa, Gas
  thermal conductivity: 0.01674 ± 0.00056 W/m/K
332.7 K, 96 kPa, Gas
  thermal conductivity: 0.01695 ± 0.00057 W/m/K
332.71 K, 584 kPa, Gas
  thermal conductivity: 0.0167 ± 0.00056 W/m/K
332.75 K, 598 kPa, Gas
  thermal conductivity: 0.01664 ± 0.00056 W/m/K
332.76 K, 1166 kPa, Gas
  thermal conductivity: 0.01708 ± 0.00031 W/m/K
332.79 K, 1079 kPa, Gas
  thermal conductivity: 0.01686 ± 0.0003 W/m/K
332.8 K, 434 kPa, Gas
  thermal conductivity: 0.01674 ± 0.00056 W/m/K
332.9 K, 198 kPa, Gas
  thermal conductivity: 0.01664 ± 0.00056 W/m/K
332.91 K, 871 kPa, Gas
  thermal conductivity: 0.01664 ± 0.00056 W/m/K
332.97 K, 813 kPa, Gas
  thermal conductivity: 0.01681 ± 0.00056 W/m/K
333.01 K, 444 kPa, Gas
  thermal conductivity: 0.01648 ± 0.00055 W/m/K
333.08 K, 1166 kPa, Gas
  thermal conductivity: 0.01705 ± 0.00031 W/m/K
333.11 K, 1077 kPa, Gas
  thermal conductivity: 0.0169 ± 0.0003 W/m/K
333.13 K, 96 kPa, Gas
  thermal conductivity: 0.017 ± 0.00057 W/m/K
333.15 K, Liquid
  thermal conductivity: 0.06293 ± 0.00045 W/m/K
333.26 K, 868 kPa, Gas
  thermal conductivity: 0.01661 ± 0.00056 W/m/K
333.31 K, 198 kPa, Gas
  thermal conductivity: 0.01672 ± 0.00056 W/m/K
333.42 K, 1165 kPa, Gas
  thermal conductivity: 0.01702 ± 0.0003 W/m/K
333.46 K, 1075 kPa, Gas
  thermal conductivity: 0.01692 ± 0.0003 W/m/K
333.56 K, 96 kPa, Gas
  thermal conductivity: 0.01706 ± 0.00057 W/m/K
333.6 K, 298 kPa, Gas
  thermal conductivity: 0.01659 ± 0.00056 W/m/K
333.74 K, 197 kPa, Gas
  thermal conductivity: 0.01673 ± 0.00056 W/m/K
333.82 K, 441 kPa, Gas
  thermal conductivity: 0.01653 ± 0.00055 W/m/K
333.98 K, 435 kPa, Gas
  thermal conductivity: 0.01662 ± 0.00056 W/m/K
334.02 K, 96 kPa, Gas
  thermal conductivity: 0.01704 ± 0.00057 W/m/K
334.02 K, 298 kPa, Gas
  thermal conductivity: 0.01661 ± 0.00056 W/m/K
334.19 K, 197 kPa, Gas
  thermal conductivity: 0.01672 ± 0.00056 W/m/K
334.51 K, 96 kPa, Gas
  thermal conductivity: 0.01712 ± 0.00057 W/m/K
340.58 K, 3036 kPa, Liquid
  thermal conductivity: 0.06257 ± 0.0007 W/m/K
340.6 K, 1565 kPa, Liquid
  thermal conductivity: 0.06077 ± 0.00069 W/m/K
340.63 K, 3034 kPa, Liquid
  thermal conductivity: 0.06242 ± 0.0007 W/m/K
340.65 K, 1563 kPa, Liquid
  thermal conductivity: 0.06068 ± 0.00068 W/m/K
340.7 K, 96 kPa, Gas
  thermal conductivity: 0.01742 ± 0.00058 W/m/K
340.73 K, 194 kPa, Gas
  thermal conductivity: 0.01765 ± 0.00059 W/m/K
340.73 K, 5177 kPa, Liquid
  thermal conductivity: 0.06477 ± 0.00073 W/m/K
340.75 K, 8139 kPa, Liquid
  thermal conductivity: 0.06735 ± 0.00075 W/m/K
340.75 K, 8199 kPa, Liquid
  thermal conductivity: 0.06725 ± 0.00075 W/m/K
340.78 K, 5176 kPa, Liquid
  thermal conductivity: 0.06447 ± 0.00072 W/m/K
340.8 K, 8202 kPa, Liquid
  thermal conductivity: 0.06713 ± 0.00075 W/m/K
340.82 K, 3032 kPa, Liquid
  thermal conductivity: 0.06247 ± 0.00071 W/m/K
340.86 K, 1561 kPa, Liquid
  thermal conductivity: 0.06064 ± 0.00069 W/m/K
340.88 K, 3031 kPa, Liquid
  thermal conductivity: 0.06222 ± 0.0007 W/m/K
340.92 K, 97 kPa, Gas
  thermal conductivity: 0.01718 ± 0.00057 W/m/K
340.92 K, 1560 kPa, Liquid
  thermal conductivity: 0.06043 ± 0.00068 W/m/K
340.94 K, 194 kPa, Gas
  thermal conductivity: 0.0174 ± 0.0006 W/m/K
341.03 K, 8138 kPa, Liquid
  thermal conductivity: 0.06739 ± 0.00075 W/m/K
341.04 K, 20095 kPa, Liquid
  thermal conductivity: 0.07528 ± 0.00083 W/m/K
341.06 K, 16393 kPa, Liquid
  thermal conductivity: 0.07294 ± 0.00081 W/m/K
341.07 K, 5175 kPa, Liquid
  thermal conductivity: 0.06447 ± 0.00073 W/m/K
341.08 K, 8204 kPa, Liquid
  thermal conductivity: 0.06709 ± 0.00076 W/m/K
341.09 K, 3029 kPa, Liquid
  thermal conductivity: 0.06217 ± 0.0007 W/m/K
341.09 K, 21968 kPa, Liquid
  thermal conductivity: 0.07668 ± 0.00085 W/m/K
341.1 K, 8133 kPa, Liquid
  thermal conductivity: 0.06713 ± 0.00075 W/m/K
341.1 K, 12136 kPa, Liquid
  thermal conductivity: 0.07037 ± 0.00078 W/m/K
341.1 K, 20086 kPa, Liquid
  thermal conductivity: 0.07523 ± 0.00083 W/m/K
341.12 K, 16392 kPa, Liquid
  thermal conductivity: 0.07302 ± 0.00081 W/m/K
341.13 K, 1563 kPa, Liquid
  thermal conductivity: 0.06043 ± 0.00068 W/m/K
341.14 K, 96 kPa, Gas
  thermal conductivity: 0.01698 ± 0.00057 W/m/K
341.15 K, 5174 kPa, Liquid
  thermal conductivity: 0.06431 ± 0.00072 W/m/K
341.15 K, 21974 kPa, Liquid
  thermal conductivity: 0.07662 ± 0.00085 W/m/K
341.16 K, 194 kPa, Gas
  thermal conductivity: 0.01722 ± 0.00058 W/m/K
